Data from ChEMBL document CHEMBL4011590, “Structure-activity relationship studies on 3,5-dinitrophenyl tetrazoles as antitubercular agents” (Eur J Med Chem, 2017).
In brackets after ≈: the same amount, converted by molar mass.

What was measured:
Klebsiella pneumoniae [1] = test: Antibacterial activity against Klebsiella pneumoniae HK11750/08 after 48 hrs by broth microdilution method; type: functional; conditions: HK11750/08, 48 h
[2] = tested on: Trichophyton mentagrophytes; test: Antifungal activity against Trichophyton mentagrophytes 445 after 72 hrs by broth microdilution method; type: functional; conditions: Trichophyton mentagrophytes, 445, 72 h
Enterococcus sp. [3] = test: Antibacterial activity against Enterococcus sp. HK14365/08 after 48 hrs by broth microdilution method; type: functional; conditions: HK14365/08, 48 h
Escherichia coli [4] = test: Antibacterial activity against Escherichia coli ATCC 8739 after 24 hrs by broth microdilution method; type: functional; conditions: ATCC 8739, 24 h
Klebsiella pneumoniae [5] = test: Antibacterial activity against extended spectrum beta-lactamase producing Klebsiella pneumoniae HK14368/08 after 24 hrs by broth microdilution method; type: functional; conditions: HK14368/08, 24 h
Aspergillus fumigatus [6] = test: Antifungal activity against Aspergillus fumigatus 231 after 24 hrs by broth microdilution method; type: functional; conditions: Aspergillus fumigatus, 231, 24 h
Lichtheimia corymbifera [7] = test: Antifungal activity against Absidia corymbifera 272 after 48 hrs by broth microdilution method; type: functional; conditions: Lichtheimia corymbifera, 272, 48 h
Mycobacterium avium [8] = test: Antimycobacterial activity against Mycobacterium avium CNCTC My 330/80 after 14 days by micromethod; type: functional; conditions: CNCTC My 330/80, 336 h
Mycobacterium avium [9] = test: Antimycobacterial activity against Mycobacterium avium CNCTC My 330/80 after 21 days by micromethod; type: functional; conditions: CNCTC My 330/80, 504 h
Staphylococcus aureus [10] = test: Antibacterial activity against methicillin-resistant Staphylococcus aureus HK5996/08 after 48 hrs by broth microdilution method; type: functional; conditions: HK5996/08, 48 h
Klebsiella pneumoniae [11] = test: Antibacterial activity against Klebsiella pneumoniae HK11750/08 after 24 hrs by broth microdilution method; type: functional; conditions: HK11750/08, 24 h
Mycobacterium kansasii [12] = test: Antimycobacterial activity against Mycobacterium kansasii isolate 6509/96 after 21 days by micromethod; type: functional; conditions: isolate 6509/96, 504 h
Klebsiella pneumoniae [13] = test: Antibacterial activity against extended spectrum beta-lactamase producing Klebsiella pneumoniae HK14368/08 after 48 hrs by broth microdilution method; type: functional; conditions: HK14368/08, 48 h
Nakaseomyces glabratus [14] = test: Antifungal activity against Candida glabrata 20/I after 48 hrs by broth microdilution method; type: functional
Pichia kudriavzevii [15] = test: Antifungal activity against Candida krusei E28 after 48 hrs by broth microdilution method; type: functional; conditions: E28, 48 h
Candida tropicalis [16] = test: Antifungal activity against Candida tropicalis 156 after 24 hrs by broth microdilution method; type: functional; conditions: Candida tropicalis, 156, 24 h
Candida tropicalis [17] = test: Antifungal activity against Candida tropicalis 156 after 48 hrs by broth microdilution method; type: functional; conditions: Candida tropicalis, 156, 48 h
Escherichia coli [18] = test: Antibacterial activity against Escherichia coli ATCC 8739 after 48 hrs by broth microdilution method; type: functional; conditions: ATCC 8739, 48 h
CHO-K1 = test: Cytotoxicity against CHOK1 cells after 24 hrs by MTT assay; type: cell-based; conditions: Cricetulus griseus, CHO-K1, 24 h
[19] = tested on: Staphylococcus epidermidis; test: Antibacterial activity against Staphylococcus epidermidis HK6966/08 after 24 hrs by broth microdilution method; type: functional; conditions: HK6966/08, 24 h
Trichosporon asahii [20] = test: Antifungal activity against Trichosporon asahii 1188 after 24 hrs by broth microdilution method; type: functional; conditions: Trichosporon asahii, 1188, 24 h
[21] = tested on: Trichophyton mentagrophytes; test: Antifungal activity against Trichophyton mentagrophytes 445 after 120 hrs by broth microdilution method; type: functional; conditions: Trichophyton mentagrophytes, 445, 120 h
Trichosporon asahii [22] = test: Antifungal activity against Trichosporon asahii 1188 after 48 hrs by broth microdilution method; type: functional; conditions: Trichosporon asahii, 1188, 48 h
Pseudomonas aeruginosa [23] = test: Antibacterial activity against Pseudomonas aeruginosa ATCC 9027 after 24 hrs by broth microdilution method; type: functional; conditions: ATCC 9027, 24 h
Enterococcus sp. [24] = test: Antibacterial activity against Enterococcus sp. HK14365/08 after 24 hrs by broth microdilution method; type: functional; conditions: HK14365/08, 24 h
Mycobacterium kansasii [25] = test: Antimycobacterial activity against Mycobacterium kansasii isolate 6509/96 after 7 days by micromethod; type: functional; conditions: isolate 6509/96, 168 h
Candida albicans [26] = test: Antifungal activity against Candida albicans ATCC 44859 after 24 hrs by broth microdilution method; type: functional; conditions: ATCC 44859, 24 h
Mycobacterium kansasii [27] = test: Antimycobacterial activity against Mycobacterium kansasii CNCTC My 235/80 after 21 days by micromethod; type: functional; conditions: CNCTC My 235/80, 504 h
Staphylococcus aureus [28] = test: Antibacterial activity against methicillin-resistant Staphylococcus aureus HK5996/08 after 24 hrs by broth microdilution method; type: functional; conditions: HK5996/08, 24 h
Nakaseomyces glabratus [29] = test: Antifungal activity against Candida glabrata 20/I after 24 hrs by broth microdilution method; type: functional
Candida albicans [30] = test: Antifungal activity against Candida albicans ATCC 44859 after 48 hrs by broth microdilution method; type: functional; conditions: ATCC 44859, 48 h
Staphylococcus aureus [31] = test: Antibacterial activity against Staphylococcus aureus ATCC 6538 after 24 hrs by broth microdilution method; type: functional; conditions: ATCC 6538, 24 h
Mycobacterium kansasii [32] = test: Antimycobacterial activity against Mycobacterium kansasii CNCTC My 235/80 after 14 days by micromethod; type: functional; conditions: CNCTC My 235/80, 336 h
[33] = tested on: Staphylococcus epidermidis; test: Antibacterial activity against Staphylococcus epidermidis HK6966/08 after 48 hrs by broth microdilution method; type: functional; conditions: HK6966/08, 48 h
[34] = tested on: Mycobacterium tuberculosis; test: Antimycobacterial activity against Mycobacterium tuberculosis H37Rv CNCTC My 331/88 after 14 days by micromethod; type: functional; conditions: H37Rv CNCTC My 331/88, 336 h
Staphylococcus aureus [35] = test: Antibacterial activity against Staphylococcus aureus ATCC 6538 after 48 hrs by broth microdilution method; type: functional; conditions: ATCC 6538, 48 h
[36] = tested on: Mycobacterium tuberculosis; test: Antimycobacterial activity against Mycobacterium tuberculosis H37Rv CNCTC My 331/88 after 21 days by micromethod; type: functional; conditions: H37Rv CNCTC My 331/88, 504 h
Aspergillus fumigatus [37] = test: Antifungal activity against Aspergillus fumigatus 231 after 48 hrs by broth microdilution method; type: functional; conditions: Aspergillus fumigatus, 231, 48 h
Pseudomonas aeruginosa [38] = test: Antibacterial activity against Pseudomonas aeruginosa ATCC 9027 after 48 hrs by broth microdilution method; type: functional; conditions: ATCC 9027, 48 h
Mycobacterium kansasii [39] = test: Antimycobacterial activity against Mycobacterium kansasii isolate 6509/96 after 14 days by micromethod; type: functional; conditions: isolate 6509/96, 336 h
Mycobacterium kansasii [40] = test: Antimycobacterial activity against Mycobacterium kansasii CNCTC My 235/80 after 7 days by micromethod; type: functional; conditions: CNCTC My 235/80, 168 h
Pichia kudriavzevii [41] = test: Antifungal activity against Candida krusei E28 after 24 hrs by broth microdilution method; type: functional; conditions: E28, 24 h
Lichtheimia corymbifera [42] = test: Antifungal activity against Absidia corymbifera 272 after 24 hrs by broth microdilution method; type: functional; conditions: Lichtheimia corymbifera, 272, 24 h

O=[N+]([O-])c1cc(-c2nnn(Cc3ccc(F)cc3)n2)cc([N+](=O)[O-])c1
MIC (Klebsiella pneumoniae [1]): > 500 µM | MIC [2]: > 500 µM | MIC (Enterococcus sp. [3]): > 500 µM | MIC (Escherichia coli [4]): > 500 µM | MIC (Klebsiella pneumoniae [5]): > 500 µM | MIC (Aspergillus fumigatus [6]): > 500 µM | MIC (Lichtheimia corymbifera [7]): > 500 µM | MIC99 (Mycobacterium avium [8]): 8 µM (≈ 2.75 µg/mL) | MIC99 (Mycobacterium avium [9]): 8 µM (≈ 2.75 µg/mL) | MIC (Staphylococcus aureus [10]): > 500 µM | MIC (Klebsiella pneumoniae [11]): > 500 µM | MIC99 (Mycobacterium kansasii [12]): 4 µM (≈ 1.38 µg/mL) | MIC (Klebsiella pneumoniae [13]): > 500 µM | MIC (Nakaseomyces glabratus [14]): > 500 µM | MIC (Pichia kudriavzevii [15]): > 500 µM | MIC (Candida tropicalis [16]): > 500 µM | MIC (Candida tropicalis [17]): > 500 µM | MIC (Escherichia coli [18]): > 500 µM | IC50 (CHO-K1): 35 µM | MIC [19]: > 500 µM | MIC (Trichosporon asahii [20]): > 500 µM | MIC [21]: > 500 µM | MIC (Trichosporon asahii [22]): > 500 µM | MIC (Pseudomonas aeruginosa [23]): > 500 µM | MIC (Enterococcus sp. [24]): > 500 µM | MIC99 (Mycobacterium kansasii [25]): 1 µM (≈ 0.344 µg/mL) | MIC (Candida albicans [26]): > 500 µM | MIC99 (Mycobacterium kansasii [27]): 2 µM (≈ 0.689 µg/mL) | MIC (Staphylococcus aureus [28]): > 500 µM | MIC (Nakaseomyces glabratus [29]): > 500 µM | MIC (Candida albicans [30]): > 500 µM | MIC (Staphylococcus aureus [31]): > 500 µM | MIC99 (Mycobacterium kansasii [32]): 2 µM (≈ 0.689 µg/mL) | MIC [33]: > 500 µM | MIC99 [34]: 0.25 µM (≈ 0.0861 µg/mL) | MIC (Staphylococcus aureus [35]): > 500 µM | MIC99 [36]: 0.5 µM (≈ 0.172 µg/mL) | MIC (Aspergillus fumigatus [37]): > 500 µM | MIC (Pseudomonas aeruginosa [38]): > 500 µM | MIC99 (Mycobacterium kansasii [39]): 2 µM (≈ 0.689 µg/mL) | MIC99 (Mycobacterium kansasii [40]): 1 µM (≈ 0.344 µg/mL) | MIC (Pichia kudriavzevii [41]): > 500 µM | MIC (Lichtheimia corymbifera [42]): > 500 µM

O=[N+]([O-])c1cc(-c2nnn(CSc3nnnn3Cc3ccccc3)n2)cc([N+](=O)[O-])c1
MIC (Klebsiella pneumoniae [1]): > 125 µM | MIC [2]: > 125 µM | MIC (Enterococcus sp. [3]): > 125 µM | MIC (Escherichia coli [4]): > 125 µM | MIC (Klebsiella pneumoniae [5]): > 125 µM | MIC (Aspergillus fumigatus [6]): > 125 µM | MIC (Lichtheimia corymbifera [7]): > 125 µM | MIC99 (Mycobacterium avium [8]): 16 µM (≈ 7.05 µg/mL) | MIC99 (Mycobacterium avium [9]): 32 µM (≈ 14.1 µg/mL) | MIC (Staphylococcus aureus [10]): > 125 µM | MIC (Klebsiella pneumoniae [11]): > 125 µM | MIC99 (Mycobacterium kansasii [12]): 4 µM (≈ 1.76 µg/mL) | MIC (Klebsiella pneumoniae [13]): > 125 µM | MIC (Nakaseomyces glabratus [14]): > 125 µM | MIC (Pichia kudriavzevii [15]): > 125 µM | MIC (Candida tropicalis [16]): > 125 µM | MIC (Candida tropicalis [17]): > 125 µM | MIC (Escherichia coli [18]): > 125 µM | MIC [19]: > 125 µM | MIC (Trichosporon asahii [20]): > 125 µM | MIC [21]: > 125 µM | MIC (Trichosporon asahii [22]): > 125 µM | MIC (Pseudomonas aeruginosa [23]): > 125 µM | MIC (Enterococcus sp. [24]): > 125 µM | MIC99 (Mycobacterium kansasii [25]): 2 µM (≈ 0.881 µg/mL) | MIC (Candida albicans [26]): > 125 µM | MIC99 (Mycobacterium kansasii [27]): 4 µM (≈ 1.76 µg/mL) | MIC (Staphylococcus aureus [28]): > 125 µM | MIC (Nakaseomyces glabratus [29]): > 125 µM | MIC (Candida albicans [30]): > 125 µM | MIC (Staphylococcus aureus [31]): > 125 µM | MIC99 (Mycobacterium kansasii [32]): 4 µM (≈ 1.76 µg/mL) | MIC [33]: > 125 µM | MIC99 [34]: 0.125 µM (≈ 0.0551 µg/mL) | MIC (Staphylococcus aureus [35]): > 125 µM | MIC99 [36]: 0.125 µM (≈ 0.0551 µg/mL) | MIC (Aspergillus fumigatus [37]): > 125 µM | MIC (Pseudomonas aeruginosa [38]): > 125 µM | MIC99 (Mycobacterium kansasii [39]): 4 µM (≈ 1.76 µg/mL) | MIC99 (Mycobacterium kansasii [40]): 2 µM (≈ 0.881 µg/mL) | MIC (Pichia kudriavzevii [41]): > 125 µM | MIC (Lichtheimia corymbifera [42]): > 125 µM
